Consider one molecule from patent EP3035931B1, “COMPOSITION FOR REDUCING NERVOUS SYSTEM INJURY AND METHOD OF MAKING AND USE THEREOF” (Morehouse School of Medicine, priority 2013, dated 2015).

One series deals with Na^+/Ca^2+ ion exchanger. The conditions noted are these: cited from earlier work.
Series [1] is described as follows: Efficacious plasma and brain concentration in mice. Type of series: in vivo. From the text: It is thus estimated that only a 10-fold increase in potency is necessary to achieve efficacious concentrations that are suitable for an acute therapeutic for stroke in humans. […]
Series [2] in a line: Mouse 60 min MCAO, intracerebroventricular injection one hour after MCAO, infarct volume. The settings on record: mice, evaluated one day after ischemia induction, FIG. 18.
A further series concerns cortical neurons. Put plainly: Fura-2 Ca^2+ imaging of acid-induced increase of [Ca^2+]i in cortical neurons. The settings on record: pH drop to 6.0; blockers of glutamate receptors and voltage-gated Ca^2+ channels present; n=6-8. Type of series: cell-based, mouse.
Another series addresses T1, ASICs (Mus musculus, UniProt Q6NXK8).
T1 sequence (Q6NXK8 1-526): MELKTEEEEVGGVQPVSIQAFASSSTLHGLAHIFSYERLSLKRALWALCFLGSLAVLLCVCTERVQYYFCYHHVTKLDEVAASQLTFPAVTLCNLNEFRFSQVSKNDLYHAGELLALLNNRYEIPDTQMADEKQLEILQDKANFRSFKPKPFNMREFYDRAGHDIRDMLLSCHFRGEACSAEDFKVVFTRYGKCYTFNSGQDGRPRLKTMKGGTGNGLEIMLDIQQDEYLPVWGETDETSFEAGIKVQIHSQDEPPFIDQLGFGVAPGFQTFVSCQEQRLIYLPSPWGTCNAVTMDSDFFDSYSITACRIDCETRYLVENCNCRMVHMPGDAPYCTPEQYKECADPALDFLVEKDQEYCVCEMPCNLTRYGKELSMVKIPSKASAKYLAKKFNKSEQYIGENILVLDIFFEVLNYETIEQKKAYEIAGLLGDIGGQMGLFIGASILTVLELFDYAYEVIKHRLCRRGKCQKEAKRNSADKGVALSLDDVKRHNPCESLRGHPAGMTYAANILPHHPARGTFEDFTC
T1 sequence (Q925H0 1-512 partner): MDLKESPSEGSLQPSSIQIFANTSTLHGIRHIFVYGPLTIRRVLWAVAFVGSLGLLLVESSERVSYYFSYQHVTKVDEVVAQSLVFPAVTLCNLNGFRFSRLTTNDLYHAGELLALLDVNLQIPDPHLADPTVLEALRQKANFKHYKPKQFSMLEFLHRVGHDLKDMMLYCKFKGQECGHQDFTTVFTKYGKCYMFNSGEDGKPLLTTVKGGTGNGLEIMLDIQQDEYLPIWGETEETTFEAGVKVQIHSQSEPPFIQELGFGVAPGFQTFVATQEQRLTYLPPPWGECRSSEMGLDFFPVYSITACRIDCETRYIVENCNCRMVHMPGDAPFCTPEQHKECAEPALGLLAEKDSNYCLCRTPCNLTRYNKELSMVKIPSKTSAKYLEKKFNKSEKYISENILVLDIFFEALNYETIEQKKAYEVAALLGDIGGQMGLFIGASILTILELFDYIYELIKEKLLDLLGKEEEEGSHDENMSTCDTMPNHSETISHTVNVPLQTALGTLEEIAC
The format is cell-based. The conditions noted are these: cultured mouse cortical neurons; n=8; read-out: IC50, dose-dependent blockade of ASIC currents.

SMILES strings stand for the structures.

As usually defined, the IC50 is the concentration needed to halve the response being measured. In the case of `N=C(N)NC(=O)c1nc(Cl)c(N)nc1N` [amiloride], the IC50 with Na^+/Ca^2+ ion exchanger is 1100 µM; on ASICs it was 16.4 ± 4.1 µM. Further, the “total brain concentration at which efficacy can be achieved” value in series [1] (icv dose of 1 µl x 500 µM) amounted to 12.5 µM. The “plasma concentration at which efficacy can be achieved” value in series [1] (iv dose of 50 µl x 1mM) was determined as 32.5 µM. Also, in series [2], the infarct volume result was “effectively reduce infarct volume”. Also, in the series on cortical neurons, the “peak and sustained increases in [Ca^2+]i” value was “largely inhibited”.
